Here are results for 2 compounds from publication PMC10099813, “Stafiba: A STAT5‐Selective Small‐Molecule Inhibitor” (Chembiochem, 2022).

Structures are written as SMILES.

The target in data set [1] is T1, STAT5a (Homo sapiens, UniProt P42229).
T1 sequence (P42229 1-794): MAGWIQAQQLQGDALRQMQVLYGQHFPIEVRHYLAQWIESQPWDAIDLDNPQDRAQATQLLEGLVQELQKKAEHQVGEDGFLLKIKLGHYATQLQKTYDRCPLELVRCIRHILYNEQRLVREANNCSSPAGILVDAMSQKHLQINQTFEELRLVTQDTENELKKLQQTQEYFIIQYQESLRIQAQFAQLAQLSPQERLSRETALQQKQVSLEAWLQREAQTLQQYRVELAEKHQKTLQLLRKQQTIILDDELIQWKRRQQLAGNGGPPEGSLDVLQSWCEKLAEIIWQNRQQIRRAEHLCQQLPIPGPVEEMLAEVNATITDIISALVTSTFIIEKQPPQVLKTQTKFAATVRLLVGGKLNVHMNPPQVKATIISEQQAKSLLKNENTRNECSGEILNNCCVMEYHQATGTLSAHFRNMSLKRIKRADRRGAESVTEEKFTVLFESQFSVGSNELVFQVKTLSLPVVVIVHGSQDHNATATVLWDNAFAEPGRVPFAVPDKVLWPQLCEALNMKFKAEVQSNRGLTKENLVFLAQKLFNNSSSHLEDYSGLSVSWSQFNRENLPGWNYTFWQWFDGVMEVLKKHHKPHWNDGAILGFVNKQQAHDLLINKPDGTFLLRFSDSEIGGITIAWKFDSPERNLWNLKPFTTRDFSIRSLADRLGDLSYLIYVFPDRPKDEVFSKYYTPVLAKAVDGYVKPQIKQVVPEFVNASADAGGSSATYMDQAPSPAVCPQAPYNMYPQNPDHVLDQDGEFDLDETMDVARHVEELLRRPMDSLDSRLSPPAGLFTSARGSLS
Nature of the data set: Competitive fluorescence polarization (FP) binding assay, STAT5a SH2 domain. To be noted: for Ki / IC50: FP assay, 2 % DMSO (10 % DMSO for 10); for Ki: Ki calculated from IC50 (n=3) via published equation; for IC50: n=3 unless stated. As for the experimental part:
Fluorescence polarization assays: Competitive binding assays based on fluorescence polarization were carried out essentially as previously described.[[4a]] Unless stated otherwise, final concentrations of the buffer components were: 10 mM Tris (pH 8.0), 50 mM NaCl, 1 mM EDTA, 1 mM DTT, 0.1 % (v/v) Nonidet P‐40 substitute, and 2 % DMSO. Proteins were used at concentrations which reflect the Kd values of the interactions between the fluoropeptide and the protein preparations. Protein concentrations used for activity analysis of compound 5 were 91 nM for STAT1, 107 nM for STAT3, 28 nM for STAT4, 122 nM for STAT5a, 56 nM for STAT5b and 101 nM for STAT6. Protein concentrations used for activity analysis of AC‐4‐130 were 103 nM for STAT5a and 62 nM for STAT5b. […] Final concentration of all fluorescent‐labelled peptides was 10 nM. The following peptides were used in assays: 5‐carboxyfluorescein‐GpYDKPHVL for STAT1; 5‐carboxyfluorescein‐GpYLPQTV‐NH2 for STAT3; 5‐carboxyfluorescein‐GpYLPQNID for STAT4; 5‐carboxyfluorescein‐GpYLVLDKW for STAT5a/5b, and 5‐carboxyfluorescein‐GpYVPWQDLI for STAT6. Protein and test compounds were incubated for 1 h prior to addition of the fluorescein‐labeled peptide. Fluorescence polarization was measured after another 60 min using an Infinite F500 plate reader (Tecan). IC50 values were converted to Ki‐values using the published equation.[13]

Data set [2] is described as follows: Solubility as observed during synthesis / stock preparation. Type of data set: physicochemical. To be noted: DMSO stock solution.

In the case of `O=C(CNc1ccc(C(=O)Nc2ccc(Oc3ccccc3)cc2)cc1)NCc1cc(C(F)(F)P(=O)(O)O)c(F)c(C(F)(F)P(=O)(O)O)c1` [compound 10], in data set [1], the Ki was 3 ± 0.4 µM and the IC50 is 6.2 ± 0.7 µM. Further, the “activity compared with AC-4-130 in FP assay against the SH2 domain of STAT5a” value in data set [1] (Figure 5C) was “substantially more active than AC‐4‐130”. For the same compound, in data set [2], the “solubility in the DMSO stock solution” value is “limited solubility”.

As to `O=C(CNc1ccc(C(=O)Nc2ccc(Oc3ccccc3)cc2)cc1)NCc1cc(OP(=O)(O)O)cc(OP(=O)(O)O)c1` [compound 5], in data set [1], the Ki was 3.1 ± 0.1 µM and the half-maximal inhibitory concentration (IC50) worked out at 6.4 ± 0.2 µM.
